Tests used:
Experiment in all cases: OncoPanel cytotoxicity assay
Format in all cases: cell-based
[1] = test system: NCIH441; conditions: Homo sapiens, NCI-H441, 72 hour incubation
Procedure: (§1) Cells were grown in RPMI 1640, 10% FBS, 2 mM L-alanyl-L-Glutamine, 1 mM Na Pyruvate, or a special medium in a humidified atmosphere of 5% CO2 at 37° C. Cells were seeded into 384-well plates and incubated in a humidified atmosphere of 5% CO2 at 37° C. Test compounds were added 24 hours post cell seeding. At the same time, a time zero, untreated cell plate was generated as a control. After a 72 hour incubation period, cells were fixed and stained with nuclear dye to allow visualization of nuclei.
(§2) Compounds were serially diluted 3.16-fold and assayed over 10 concentrations of inhibitor in a final assay concentration of 0.1% DMSO from the highest test concentration specified in the sample information chapter. Automated fluorescence microscopy was carried out using a GE Healthcare InCell Analyzer 1000, and images were collected with a 4× objective. Twelve bit tiff images were acquired using the InCell Analyzer 1000 3.2 and analyzed with Developer Toolbox 1.6 software.
(§3) Cell proliferation was measured by the signal intensity of the incorporated nuclear dye. The cell proliferation assay output is referred to as the relative cell count. To determine the cell proliferation end point, the cell proliferation data output is transformed to percent of control (POC) using the following formula: […]
(§4) Relative cell count IC50 (IC50) is the test compound's concentration that produces 50% of the cell proliferation inhibitory response or 50% cytotoxicity level. IC50 values were calculated using nonlinear regression to fit data to a sigmoidal 4 point, 4 parameter One-Site dose response model, where: y (fit)=A+[(B−A)/(1+((C/x)̂D))]. Curve-fitting, IC50 calculations and report generation were performed using a custom data reduction engine MathIQ based software (AIM). […] In these cases, the IC50 values were expressed as 40 μM and 10 μM, respectively (Table 2).

[2] = test system: NCIH446; conditions: Homo sapiens, NCI-H446, 72 hour incubation
Procedure: as §1, §2, §3, §4

[3] = test system: U2OS; conditions: Homo sapiens, 72 hour incubation
Procedure: as §1, §2, §3, §4

[4] = test system: Caki-2; conditions: Homo sapiens, 72 hour incubation
Procedure: as §1, §2, §3, §4

[5] = test system: A101D; conditions: Homo sapiens, 72 hour incubation
Procedure: as §1, §2, §3, §4

[6] = test system: SW1116; conditions: Homo sapiens, SW 1116, 72 hour incubation
Procedure: as §1, §2, §3, §4

[7] = test system: J-RT3-T3-5; conditions: Homo sapiens, 72 hour incubation
Procedure: as §1, §2, §3, §4

[8] = test system: SW579; conditions: Homo sapiens, 72 hour incubation
Procedure: as §1, §2, §3, §4

[9] = test system: SCaBER; conditions: Homo sapiens, 72 hour incubation
Procedure: as §1, §2, §3, §4

[10] = test system: SKO-007; conditions: Homo sapiens, 72 hour incubation
Procedure: as §1, §2, §3, §4

[11] = test system: CML-T1; conditions: Homo sapiens, 72 hour incubation
Procedure: as §1, §2, §3, §4

[12] = test system: SNU-1; conditions: Homo sapiens, SNU1, 72 hour incubation
Procedure: as §1, §2, §3, §4

[13] = test system: CRO-AP2; conditions: Homo sapiens, 72 hour incubation
Procedure: as §1, §2, §3, §4

[14] = test system: C-4 I; conditions: Homo sapiens, 72 hour incubation
Procedure: as §1, §2, §3, §4

[15] = test system: A375; conditions: Homo sapiens, A-375, 72 hour incubation
Procedure: as §1, §2, §3, §4

[16] = test system: SiHa; conditions: Homo sapiens, 72 hour incubation
Procedure: as §1, §2, §3, §4

[17] = test system: NALM-6; conditions: Homo sapiens, 72 hour incubation
Procedure: as §1, §2, §3, §4

[18] = test system: SK-UT-1; conditions: Homo sapiens, 72 hour incubation
Procedure: as §1, §2, §3, §4

[19] = test system: NCI-H520; conditions: Homo sapiens, 72 hour incubation
Procedure: as §1, §2, §3, §4

[20] = test system: RKO; conditions: Homo sapiens, 72 hour incubation
Procedure: as §1, §2, §3, §4

[21] = test system: HMCB; conditions: Homo sapiens, 72 hour incubation
Procedure: as §1, §2, §3, §4

[22] = test system: MALME3M; conditions: Homo sapiens, Malme-3M, 72 hour incubation
Procedure: as §1, §2, §3, §4

[23] = test system: SW954; conditions: Homo sapiens, SW 954, 72 hour incubation
Procedure: as §1, §2, §3, §4

[24] = test system: EFM-19; conditions: Homo sapiens, 72 hour incubation
Procedure: as §1, §2, §3, §4

[25] = test system: TCCSUP; conditions: Homo sapiens, TCC-SUP, 72 hour incubation
Procedure: as §1, §2, §3, §4

[26] = test system: KPL-1; conditions: Homo sapiens, 72 hour incubation
Procedure: as §1, §2, §3, §4

[27] = test system: SK-MEL-1; conditions: Homo sapiens, 72 hour incubation
Procedure: as §1, §2, §3, §4

[28] = test system: SU.86.86; conditions: Homo sapiens, 72 hour incubation
Procedure: as §1, §2, §3, §4

[29] = test system: SW684; conditions: Homo sapiens, 72 hour incubation
Procedure: as §1, §2, §3, §4

[30] = test system: CFPAC-1; conditions: Homo sapiens, 72 hour incubation
Procedure: as §1, §2, §3, §4

[31] = test system: 639-V; conditions: Homo sapiens, 72 hour incubation
Procedure: as §1, §2, §3, §4

[32] = test system: BE(2)C; conditions: Homo sapiens, 72 hour incubation
Procedure: as §1, §2, §3, §4

[33] = test system: MEG01; conditions: Homo sapiens, MEG-01, 72 hour incubation
Procedure: as §1, §2, §3, §4

[34] = test system: BFTC-905; conditions: Homo sapiens, 72 hour incubation
Procedure: as §1, §2, §3, §4

[35] = test system: SNU-5; conditions: Homo sapiens, 72 hour incubation
Procedure: as §1, §2, §3, §4

[36] = test system: MDA MB 468; conditions: Homo sapiens, 72 hour incubation
Procedure: as §1, §2, §3, §4

[37] = test system: CCRFCEM; conditions: Homo sapiens, CCRF-CEM, 72 hour incubation
Procedure: as §1, §2, §3, §4

[38] = test system: MC-IXC; conditions: Homo sapiens, 72 hour incubation
Procedure: as §1, §2, §3, §4

SMILES | IC50 [1] | IC50 [2] | IC50 [3] | IC50 [4] | IC50 [5] | IC50 [6] | IC50 [7] | IC50 [8] | IC50 [9] | IC50 [10] | IC50 [11] | IC50 [12] | IC50 [13] | IC50 [14] | IC50 [15] | IC50 [16] | IC50 [17] | IC50 [18] | IC50 [19] | IC50 [20] | further results
CC[C@@H]1CNC2(CC2)CN1C(=O)[C@@H]1C[C@@H](F)CN1C(=O)C1=C(C(C)C)N2C(=N[C@@](C)(c3ccc(Cl)nc3)[C@H]2c2ccc(Cl)c(F)c2)S1 [Compound A, [(5R,6S)-5-(4-Chloro-3-fluorophenyl)-6-(6-chloropyridin-3-yl)-6-methyl-3-(propan-2-yl)-5,6-dihydroimidazo[2,1-b][1,3]thiazol-2-yl][(2S,4R)-2-{[(6R)-6-ethyl-4,7-diazaspiro[2.5]oct-7-yl]carbonyl}-4-fluoropyrrolidin-1-yl]methanone] | > 40 µM | > 40 µM | 1.24 µM | 0.472 µM | 0.233 µM | > 40 µM | > 40 µM | > 40 µM | > 40 µM | > 40 µM | 2.38 µM | 0.412 µM | 0.204 µM | > 40 µM | 0.317 µM | > 40 µM | 0.658 µM | > 40 µM | > 40 µM | 0.654 µM | IC50 [21]: > 40 µM; IC50 [22]: 1.04 µM; IC50 [23]: > 40 µM; IC50 [24]: > 40 µM; IC50 [25]: > 40 µM; IC50 [26]: 0.455 µM; IC50 [27]: 0.207 µM; IC50 [28]: > 40 µM; IC50 [29]: > 40 µM; IC50 [30]: > 40 µM; IC50 [31]: > 40 µM; IC50 [32]: 35.3 µM; IC50 [33]: > 40 µM; IC50 [34]: > 40 µM; IC50 [35]: > 40 µM; IC50 [36]: 36.2 µM; IC50 [37]: > 40 µM; IC50 [38]: 22.7 µM
CC1(C)CCC2(CC1)N[C@@H](C(=O)N[C@@H]1CC[C@@H](C(N)=O)OC1)[C@H](c1ccnc(Cl)c1F)[C@]21C(=O)Nc2cc(Cl)ccc21 [Compound B, (3′R,4′S,5′R)—N-[(3R,6S)-6-carbamoyltetrahydro-2H-pyran-3-yl]-6″-chloro-4′-(2-chloro-3-fluoropyridin-4-yl)-4,4-dimethyl-2″-oxo-1″,2″-dihydrodispiro[cyclohexane-1,2′-pyrrolidine-3′,3″-indole]-5′-carboxamide] | > 10 µM | > 10 µM | 0.248 µM | 0.0821 µM | 0.0314 µM | > 10 µM | > 10 µM | 9.61 µM | > 10 µM | 8.64 µM | 0.0597 µM | 0.135 µM | 0.0191 µM | 7.21 µM | 0.0434 µM | > 10 µM | 0.065 µM | > 10 µM | > 10 µM | 0.107 µM | IC50 [21]: 5.49 µM; IC50 [22]: 0.0875 µM; IC50 [23]: 8.33 µM; IC50 [24]: > 10 µM; IC50 [25]: > 10 µM; IC50 [26]: 0.031 µM; IC50 [27]: 0.0293 µM; IC50 [28]: 8.86 µM; IC50 [29]: > 10 µM; IC50 [30]: > 10 µM; IC50 [31]: 6.39 µM; IC50 [32]: 9.03 µM; IC50 [33]: 9.7 µM; IC50 [34]: 8.51 µM; IC50 [35]: > 10 µM; IC50 [36]: 8.12 µM; IC50 [37]: > 10 µM; IC50 [38]: 8.62 µM

Reference: patent US20160333419A1, “GENE SIGNATURES ASSOCIATED WITH SENSITIVITY TO MDM2 INHIBITORS” (DAIICHI SANKYO COMPANY, LIMITED, priority 2014, published 2016)
